# Laboratory results as given in patent US8138159B2, “Composition for inhibiting function of human Flt3” (Takara Bio Inc., priority 2003, dated 2012).
# pIC50: −log10 of the molar value.
# What was measured:
# Format in all cases: cell-based, human
# Flt3 mRNA = Flt3 mRNA interference by synthesized siRNA, real-time RT-PCR (Example 1); settings: for inhibition percentage (%) of the relative mRNA expression level (Flt3 mRNA/GAPDH mRNA): siRNA 200 pmol, Oligofectamin, after 24 hours, vs cells transfected without siRNA
# Description: Each kind of cell selected from HL-60 cells [Flt3 WT (wild-type) low expressing cells; ATCC CCL-240], EoL-1 cells [Flt3 WT (wild-type) highly expressing cells; ECACC 94042252] and MV4-11 cells [Flt3/ITD highly expressing cells; ATCC CRL-9591] was cultured at 37° C. in an RPMI 1640 medium (manufactured by TAKARA BIO INC.) supplemented with 10% by volume fetal bovine serum (FBS) in the presence of 5% by volume CO2.
# Then, the cells (2×10^5 cells/nil) were pre-cultured for 24 hours in a 6-well plate, then recovered, and suspended so as to give a density of 1.5×10^5 cells/ml in Opti-MEM (trade name, manufactured by Invitrogen), and the synthesized siRNA was added to the resulting suspension so as to give a final concentration of 200 pmol. Transfection was carried out using Oligofectamin (trade name, manufactured by Invitrogen) in an amount of 4 μl/reaction, according to an Invitrogen's protocol attached to Oligofectamin (trade name). As a control, the cells were subjected to similar operations without adding the siRNA. The unspecific influence of the siRNA was evaluated using an siRNA to a BCR/ABL chimera mRNA.
# Confirmation of RNA interference of the target gene was carried out by determining change in mRNA level by a real-time RT-PCR method as shown below.
# Using Oligofectamin (trade name, manufactured by Invitrogen), each kind of cell was transfected with the synthesized siRNA. After 24 hours, whole RNA was extracted from the resulting cells with TRIzol™ reagent (manufactured by Invitrogen), and the resulting product was treated with DNaseI (manufactured by TAKARA BIO INC.). The transfection, the extraction of the whole RNA and the treatment with DNaseI were carried out according to a manufacturer's protocol of the reagent used.
# The real-time PCR method was carried out using a Real Time One Step RNA PCR Kit (trade name, manufactured by TAKARA BIO INC.), 100 ng of the resulting RNA as a template and a pair of primers (each 20 pmol), that is, an oligonucleotide having the nucleotide sequence of SEQ ID NO: 13 and an oligonucleotide having the nucleotide sequence of SEQ ID NO: 14. In the real-time RT-PCR method, change in fluorescence based on SYBER Green I (manufactured by TAKARA BIO INC.) was determined with Light Cycler (trade name, manufactured by Roche). The RNA level was standardized by similarly determining GAPDH mRNA with primers set forth in SEQ ID NOs: 15 and 16.
# The PCR conditions were as follows: after incubation was carried out at 95° C. for 30 seconds, the reaction was carried out in 40 cycles each consisting of the reaction at 95° C. for 1 second, then at 60° C. for 10 seconds, and at 72° C. for 30 seconds.
# The inhibition percentage (%) of the relative mRNA expression level (Flt3 mRNA/GAPDH mRNA) changed by using the synthesized siRNA, as calculated assuming that the relative mRNA expression level (Flt3 mRNA/GAPDH mRNA) of the cells only subjected to each operation of the transfection without adding the synthesized siRNA was 100%, was shown in Table 1.
# [1] = tested on: MV4-11 (ITD mutation) cells; assay: cell growth with siRNA alone or siRNA cocktail, WST-1 (Example 7); settings: final concentration 1.2 μM, electroporation, 72 hours, n=6 mean
# Description: As the composition of the present invention, a cocktail containing the synthesized siRNA1, 2 and 3, or siRNA3 alone, was examined for its growth inhibitory activity on MV4-11 (ITD mutation) cells. The synthesized siRNA1, 2 and 3 used were the same as in item (1) of Example 1 above.
# A medium for MV4-11 cells used was the same as in item (2) of above Example 1, and the cells were cultured at 37° C. for 24 hours in an RPMI 1640 medium (manufactured by TAKARA BIO INC.) supplemented with 10% by volume fetal bovine serum (FBS) (referred to hereinafter as the culture medium) in the presence of 5% by volume CO2. Then, transfection of the cells with the synthesized siRNA3 was carried out in the following manner. […]
# The cells added in an amount of 100 μl/well on the 96-well plate prepared in item (2) above were cultured at 37° C. in the presence of 5% by volume CO2. Seventy-two hours after the culture was initiated, the growth activity of the cells was determined using Premix WST-1 reagent (manufactured by TAKARA BIO INC.) according to a manufacturer's protocol. Each experiment was carried out with n=6, and the mean was determined. The relative growth ratio (%) as compared with the growth ability of the cells transfected with the control siRNA was determined.
# [2] = tested on: Flt3 mRNA highly expressing cells; assay: cell growth activity, Premix WST1 (Example 2), stated for highly expressing cells together; settings: regardless of presence or absence of ITD mutation, read-out: IC50 (50% inhibition concentration) of growth
# [3] = tested on: EoL1 cells (WT-highly expressing); assay: cell growth activity, Premix WST1 (Example 2)
# Description: (§1) The cells placed in a 96-well plate at a density of 2×10^4 cells/well were cultured in an RPMI medium (containing 10% by volume FBS). The cells were transfected with each of the synthesized (10 nM each) siRNAs, and after 20 hours, the cell growth activity was determined with Premix WST1 reagent (trade name, manufactured by TAKARA BIO INC.). Relative growth ability (%) compared with the growth ability of the control (cells subjected to transfection without adding an siRNA) was determined. Each experiment was carried out with n=3, and the mean was determined.
# [4] = tested on: MV4-11 cells (ITD mutation-highly expressing); assay: cell growth activity, Premix WST1 (Example 2)
# Description: as §1
# [5] = MV4-11 (ITD mutation-highly expressing)
# [6] = siRNA 10 nM, after 20 hours, n=3 mean, control = transfection without siRNA
substance,measurement,setting,value
"siRNA3: siRNA to juxtamembrane region (Flt3/JMD region) (target SEQ ID NO: 7); sense SEQ ID NO: 8, antisense SEQ ID NO: 9 (sense UAUGAAUAUGAUCUCAAAUTT; antisense AUUUGAGAUCAUAUUCAUATT; chemistry not given here)",Relative ratio of inhibition defining RNA interference effect in EoL1 as 1,"Flt3 mRNA; EoL1 (WT-highly expressing), the reference itself",(1)
same,inhibition percentage (%) of the relative mRNA expression level (Flt3 mRNA/GAPDH mRNA),Flt3 mRNA; EoL1 (WT-highly expressing),63%
same,selective inhibition of Flt3 mRNA expression relative to the inhibition ratio in the Flt3 low expressing cells,Flt3 mRNA; Flt3 highly expressing cells vs Flt3 low expressing cells,≥ 1.6 fold
same,inhibition of Flt3 mRNA expression relative to the cells without using an siRNA,"Flt3 mRNA; Flt3 highly expressing cells, regardless of the presence or absence of ITD mutation",65%
same,inhibition percentage (%) of the relative mRNA expression level (Flt3 mRNA/GAPDH mRNA),Flt3 mRNA; HL60 (WT-low expressing),38%
same,Relative ratio of inhibition defining RNA interference effect in EoL1 as 1,Flt3 mRNA; [5],(1)
same,inhibition percentage (%) of the relative mRNA expression level (Flt3 mRNA/GAPDH mRNA),Flt3 mRNA; [5],65%
same,relative growth ratio (%) as compared with the cells transfected with the control siRNA (growth inhibition to),[1],46.5%
same,pIC50,[2],8.00
same,Ratio of cell-growth activation defining RNA interference effect in HL60 as 1,[3],(0.50)
same,Relative growth ability (%) compared with the control,[3]; [6],45.1%
same,Ratio of cell-growth activation defining RNA interference effect in HL60 as 1,[4],(0.41)
same,Relative growth ability (%) compared with the control,[4]; [6],37.5%
